Tests used:
[1] = system: MTs; conditions: in words; versus vincristine, taxol, colchicine; cited from earlier work
[2] = system: total α-tubulin; test: cell-based MT assay: total α-tubulin by ELISA in cell lysates; conditions: for Total α-Tubulin: 4 h incubation, ELISA, relative level, average and SD of triplicate; for effect on total tubulin: in words, see FIG. 1 (compound 22, HEK-293 cells, 4 h)
Experimental: (§1) The compounds where then evaluated in a cell-based MT assay as described in Kovalevich, Characterization of brain-penetrant pyrimidine-containing molecules with differential microtubule-stabilizing activities developed as potential therapeutic agents for Alzheimer's disease and related tauopathies. J. Pharmacol. Exp. Ther., 2016, 357, 432-50. In summary, acetylated α-tubulin and total α-tubulin levels were determined by ELISA in cell lysates after 4 h of incubation with test compound at either 1 or 10 μM. See, Table 1.

[3] = system: MTs; conditions: in words; cited from earlier work
[4] = system: acetylated α-tubulin; test: cell-based MT assay: acetylated α-tubulin by ELISA in cell lysates; conditions: for Acetylated α-Tubulin: 4 h incubation, ELISA, relative level, average and SD of triplicate; for relative activity in the cell-based MT assay / shape of dose-response: in words; for relative activity in the cell-based MT assay: comparison among tested compounds; for shape of dose-response: see FIG. 1 (compound 22, HEK-293 cells, 4 h)
Experimental: as §1

| SMILES | Total α-Tubulin ([2]; 10 μM test compound) | effect on total tubulin [2] | relative activity in the cell-based MT assay [4] | shape of dose-response [4] | other results |
| --- | --- | --- | --- | --- | --- |
| CNCCCOc1cc(F)c(-c2c(Cl)nc3ncnn3c2N[C@@H](C)C(F)(F)F)c(F)c1 [Cevipabulin (1), Cevipabulin] | – | – | – | – | competition for binding to MTs [1]: competes with vincristine but not taxol or colchicine |
| CO[C@H]1C[C@H]2CC[C@@H](C1)N2c1c(-c2c(F)cc(F)cc2F)c(Cl)nc2ncnn12 [Compound 2, reference compound] | – | – | – | – | Total α-Tubulin ([2]; 1 μM test compound): 1.12 ± 0.08; binding to MTs versus unpolymerized tubulin heterodimers [3]: binds exclusively to MTs and not to unpolymerized tubulin heterodimers |
| C[C@H](Nc1c(-c2c(F)cc(OCCCNC(=O)c3ccc(C4(C(F)(F)F)N=N4)cc3)cc2F)c(Cl)nc2ncnn12)C(F)(F)F [Compound 11, (S)—N-(3-(4-(5-chloro-7-((1,1,1-trifluoropropan-2-yl)amino)-[1,2,4]triazolo[1,5-a]pyrimidin-6-yl)-3,5-difluorophenoxy)propyl)-4-(3-(trifluoromethyl)-3H-diazirin-3-yl)benzamide] | 0.88 ± 0.05 | – | – | – | Acetylated α-Tubulin ([4]; 1 μM test compound): 1.30 ± 0.28 |
| C[C@H](Nc1c(-c2c(F)cc(F)cc2F)c(Cl)nc2ncnn12)C1(C)N=N1 [Compound 14, (S)-5-chloro-N-(1-(3-methyl-3H-diazirin-3-yl)ethyl)-6-(2,4,6-trifluorophenyl)-[1,2,4]triazolo[1,5-a]pyrimidin-7-amine] | 0.94 ± 0.02 | – | – | – | – |
| C[C@@H](Nc1c(-c2c(F)cc(OCCCN(C)C)cc2F)c(Cl)nc2ncnn12)C1(C)N=N1 [Compound 21, (R)-5-chloro-6-(4-(3-(dimethylamino)propoxy)-2,6-difluorophenyl)-N-(1-(3-methyl-3H-diazirin-3-yl)ethyl)-[1,2,4]triazolo[1,5-a]pyrimidin-7-amine] | – | profound loss of total tubulin in a dose-dependent manner | most active | bell-shaped dose-response | Acetylated α-Tubulin ([4]; 10 μM test compound): 0.93 ± 0.03 |
| CN(C)CCCOc1cc(F)c(-c2c(Cl)nc3ncnn3c2NCC2(C)N=N2)c(F)c1 [Compound 22, 5-chloro-6-(4-(3-(dimethylamino)propoxy)-2,6-difluorophenyl)-N-((3-methyl-3H-diazirin-3-yl)methyl)-[1,2,4]triazolo[1,5-a]pyrimidin-7-amine] | – | profound loss of total tubulin in a dose-dependent manner | most active | bell-shaped dose-response | – |
